Laboratory results published in DBAASP.
In brackets after ≈: the same amount, converted by molar mass.

Tests used:
Assay in all cases: ≥ marks a high value that may be exact or a test limit, other limits are often not marked, values filed in µg/mL are converted to µM
[1] = test system: Pseudomonas aeruginosa ATCC BAA-427
[2] = test system: Bacillus subtilis ATCC 6633
[3] = test system: Klebsiella pneumoniae ATCC 27736
[4] = test system: Staphylococcus aureus NCTC 8325
[5] = test system: Escherichia coli ATCC 25922
[6] = test system: Candida albicans ATCC 90028
[7] = test system: Staphylococcus aureus ATCC 25923
Escherichia coli D31 = test system: Escherichia coli D31
Staphylococcus aureus MR = test system: Staphylococcus aureus MR
[8] = test system: Candida albicans ATCC 10231
[9] = test system: Streptococcus mutans ATCC 25175
[10] = test system: Staphylococcus aureus ATCC 43300
[11] = test system: Pseudomonas aeruginosa PAO1
[12] = test system: Pseudomonas aeruginosa ATCC 15442
[13] = test system: Pseudomonas aeruginosa H1001
Escherichia coli MG1655 = test system: Escherichia coli MG1655
Escherichia coli BL21 = test system: Escherichia coli BL21
[14] = test system: Staphylococcus epidermidis
Streptococcus mutans = test system: Streptococcus mutans

An MIC [1] of 4 µM (≈ 10.3 µg/mL), an MIC [2] of 6 µM (≈ 15.5 µg/mL) and an MIC [3] of 3 µM (≈ 7.76 µg/mL) were found for CC[C@H](C)[C@H](NC(=O)CNC(=O)[C@H](CCCN=C(N)N)NC(=O)[C@H](Cc1ccccc1)NC(=O)[C@@H](NC(=O)[C@H](Cc1cnc[nH]1)NC(=O)[C@H](Cc1cnc[nH]1)NC(=O)[C@H](Cc1ccccc1)NC(=O)[C@@H](N)Cc1ccccc1)[C@@H](C)CC)C(=O)N[C@H](C(=O)N[C@@H](Cc1cnc[nH]1)C(=O)N[C@H](C(=O)NCC(=O)N[C@@H](CCCCN)C(=O)N[C@H](C(=O)N[C@H](C(=O)N[C@@H](Cc1cnc[nH]1)C(=O)N[C@@H](CCCN=C(N)N)C(=O)N[C@@H](CC(C)C)C(=O)N[C@H](C(=O)N[C@H](C(=O)NCC(N)=O)[C@@H](C)O)C(C)C)[C@@H](C)CC)[C@@H](C)O)[C@@H](C)CC)C(C)C [FFHHIFRGIVHIGKTIHRLVTG] in this work.

An MIC [1] of 12 µM (≈ 30.7 µg/mL), an MIC [2] of 8 µM (≈ 20.5 µg/mL) and an MIC [3] of 6 µM (≈ 15.3 µg/mL) were found for CC[C@H](C)[C@H](NC(=O)CNC(=O)[C@H](CCCN=C(N)N)NC(=O)[C@H](Cc1ccccc1)NC(=O)[C@@H](NC(=O)[C@H](Cc1cnc[nH]1)NC(=O)[C@H](Cc1cnc[nH]1)NC(=O)[C@H](Cc1ccccc1)NC(=O)[C@@H](N)Cc1ccccc1)C(C)C)C(=O)N[C@H](C(=O)N[C@@H](Cc1cnc[nH]1)C(=O)N[C@H](C(=O)NCC(=O)N[C@@H](CCCCN)C(=O)N[C@H](C(=O)N[C@H](C(=O)N[C@@H](Cc1cnc[nH]1)C(=O)N[C@@H](CCCN=C(N)N)C(=O)N[C@@H](CC(C)C)C(=O)N[C@H](C(=O)N[C@H](C(=O)NCC(N)=O)[C@@H](C)O)C(C)C)[C@@H](C)CC)[C@@H](C)O)C(C)C)C(C)C [FFHHVFRGIVHVGKTIHRLVTG] in this work.

An MIC [4] of no less than 80 µM was found for CC(C)C[C@H](NC(=O)[C@@H](NC(=O)[C@H](CCCCN)NC(=O)[C@H](CO)NC(=O)[C@H](CC(C)C)NC(=O)[C@H](CC(C)C)NC(=O)[C@H](CO)NC(=O)[C@H](C)NC(=O)[C@H](CC(C)C)NC(=O)[C@H](Cc1ccccc1)NC(=O)[C@@H]1CCCN1C(=O)[C@H](CC(C)C)NC(=O)[C@@H](N)Cc1ccccc1)C(C)C)C(N)=O [FLPFLASLLSKVL] in this work.

An MIC [4] of 6 µM (≈ 12.5 µg/mL), an MIC [5] of 50 µM (≈ 104 µg/mL) and an MIC [6] of 13 µM (≈ 27.2 µg/mL) were found for CC[C@H](C)[C@@H]1NC(=O)[C@H](C)NC(=O)[C@@H](NC(=O)[C@@H](NC(=O)[C@@H](NC(=O)[C@H](CCCCN)NC(=O)[C@H](C)NC(=O)[C@H](C)NC(=O)[C@H](CCSC)NC(=O)CNC(=O)[C@H](C)NC(=O)[C@@H](NC(=O)[C@@H](NC(=O)[C@@H]2CCCN2C(=O)[C@H](CC(C)C)NC(=O)[C@@H](N)Cc2ccccc2)[C@@H](C)CC)[C@@H](C)CC)C(C)C)[C@@H](C)CC)CSSC[C@@H](C(=O)O)NC(=O)[C@H](CCCCN)NC(=O)[C@H](CCCCN)NC(=O)[C@H]([C@@H](C)O)NC1=O [FLPIIAGMAAKVICAITKKC] in this work.

An MIC [7] of 1.6 µM (≈ 2.33 µg/mL), an MIC (Escherichia coli D31) of no less than 50 µM and an MIC (Staphylococcus aureus MR) of 6.2 µM (≈ 9.03 µg/mL) were found for CC[C@H](C)[C@H](NC(=O)[C@H](Cc1cnc[nH]1)NC(=O)[C@H](CCC(N)=O)NC(=O)[C@H](CC(C)C)NC(=O)[C@@H](N)Cc1ccccc1)C(=O)N[C@H](C(=O)NCC(=O)N[C@@H](C)C(=O)N[C@@H](CC(C)C)C(=O)NCC(=O)N[C@@H](CCCCN)C(=O)N[C@@H](CC(C)C)C(=O)N[C@@H](Cc1ccccc1)C(N)=O)[C@@H](C)CC [FLQHIIGALGKLF] in this work. For the same molecule, the MIC [2] was 25 µM (≈ 36.4 µg/mL), the MIC [8] was 50 µM (≈ 72.8 µg/mL) and the MIC [9] was 6.2 µM (≈ 9.03 µg/mL). It also gave an MIC [10] of 6.2 µM (≈ 9.03 µg/mL), an MIC [11] greater than 100 µM and an MIC [12] of no less than 50 µM. For the same molecule, the MIC [5] was 12.5 µM (≈ 18.2 µg/mL).

An MIC [13] of 10.1 µM (≈ 12.5 µg/mL) was found for CC[C@H](C)[C@H](N)C(=O)N[C@@H](CCCCN)C(=O)N[C@@H](CC(C)C)C(=O)N[C@@H](CC(C)C)C(=O)N[C@@H](CS)C(=O)N[C@@H](CCCN=C(N)N)C(=O)N[C@H](C(=O)N[C@@H](Cc1cnc[nH]1)C(=O)N[C@@H](CCCCN)C(=O)N[C@@H](CCCCN)C(=O)O)C(C)C [IKLLCRVHKK] in this work.

An MIC [13] of no less than 87.5 µM was found for NCCCC[C@H](NC(=O)[C@H](Cc1c[nH]c2ccccc12)NC(=O)[C@H](Cc1c[nH]c2ccccc12)NC(=O)[C@@H]1CCCN1C(=O)[C@H](Cc1c[nH]c2ccccc12)NC(=O)[C@@H](N)CCCCN)C(=O)N[C@@H](Cc1c[nH]c2ccccc12)C(=O)N[C@@H](CCCN=C(N)N)C(=O)N[C@@H](CCCN=C(N)N)C(N)=O [KWPWWKWRR] in this work.

An MIC [13] of no less than 42.4 µM was found for CC[C@H](C)[C@H](NC(=O)[C@H](CCCCN)NC(=O)[C@H](CCCCN)NC(=O)[C@H](Cc1cnc[nH]1)NC(=O)[C@@H](NC(=O)[C@H](CCCN=C(N)N)NC(=O)[C@H](CS)NC(=O)[C@H](CC(C)C)NC(=O)[C@@H](N)CC(C)C)C(C)C)C(=O)N[C@@H](C)C(=O)O [LLCRVHKKIA] in this work.

An MIC (Escherichia coli MG1655) of 12 µM (≈ 42.9 µg/mL), an MIC (Escherichia coli BL21) of 6 µM (≈ 21.5 µg/mL) and an MIC [14] of 4 µM (≈ 14.3 µg/mL) were found for CC[C@H](C)[C@H](NC(=O)[C@H](CCCCN)NC(=O)[C@H](CCCN=C(N)N)NC(=O)[C@H](CCCCN)NC(=O)[C@H](CCCCN)NC(=O)[C@H](CCCCN)NC(=O)[C@H](Cc1c[nH]c2ccccc12)NC(=O)[C@H](CCCCN)NC(=O)[C@H](CC(C)C)NC(=O)[C@H](Cc1c[nH]c2ccccc12)NC(=O)[C@H](CCCN=C(N)N)NC(=O)[C@H](CC(=O)O)NC(=O)[C@H](CCSC)NC(C)=O)C(=O)N[C@@H](CCCN=C(N)N)C(=O)N[C@@H](CCCN=C(N)N)C(=O)N[C@@H](CCCN=C(N)N)C(=O)N[C@@H](CCCN=C(N)N)C(=O)N[C@@H](CCCN=C(N)N)C(=O)N[C@@H](CCCN=C(N)N)C(=O)N[C@@H](CCCN=C(N)N)C(=O)N[C@@H](CCCN=C(N)N)C(=O)N[C@@H](CCCN=C(N)N)C(=O)N[C@@H](CCCN=C(N)N)C(=O)N[C@@H](CCCN=C(N)N)C(N)=O [MDRWLKWKKKRKIRRRRRRRRRRR] in this work.

An MIC [13] of 0.0872 µM (≈ 0.21 µg/mL) was found for CC[C@H](C)[C@H](NC(=O)[C@H](CCCN=C(N)N)NC(=O)[C@H](CCCN=C(N)N)NC(=O)[C@@H]1CCCN1C(=O)CNC(=O)[C@H](CCCN=C(N)N)NC(=O)[C@@H]1CCCN1C(=O)[C@H](CCCN=C(N)N)NC(=O)[C@@H]1CCCN1C(=O)[C@H](CC(C)C)NC(=O)[C@H](Cc1ccc(O)cc1)NC(=O)[C@@H]1CCCN1C(=O)[C@@H]1CCCN1C(=O)[C@H](CCCCN)NC(=O)[C@H](CC(=O)O)NC(=O)[C@@H](N)C(C)C)C(=O)N[C@@H](Cc1ccc(O)cc1)C(=O)N[C@@H](CC(N)=O)C(=O)N[C@@H](CCCN=C(N)N)C(=O)NCC(=O)O [VDKPPYLPRPRGPRRIYNRG] in this work.

An MIC [13] of 0.123 µM (≈ 0.3 µg/mL) was found for CC[C@H](C)[C@H](NC(=O)[C@H](CCCN=C(N)N)NC(=O)[C@H](CCCN=C(N)N)NC(=O)[C@@H]1CCCN1C(=O)[C@@H]1CCCN1C(=O)[C@H](CCCN=C(N)N)NC(=O)[C@@H]1CCCN1C(=O)[C@H](CCCN=C(N)N)NC(=O)[C@@H]1CCCN1C(=O)[C@H](CC(C)C)NC(=O)[C@H](Cc1ccc(O)cc1)NC(=O)[C@@H]1CCCN1C(=O)[C@@H]1CCCN1C(=O)[C@H](CCCCN)NC(=O)[C@H](CC(=O)O)NC(=O)[C@@H](N)C(C)C)C(=O)N[C@@H](Cc1ccc(O)cc1)C(=O)N[C@@H](CC(N)=O)C(=O)N[C@@H](Cc1cnc[nH]1)C(=O)NCC(=O)O [VDKPPYLPRPRPPRRIYNHG] in this work.

An MIC (Streptococcus mutans) of 31.8 µM (≈ 44.7 µg/mL) was found for CC[C@H](C)[C@H](NC(=O)[C@H](CCCCN)NC(=O)[C@H](CC(C)C)NC(=O)[C@H](CC(C)C)NC(=O)[C@H](CCC(N)=O)NC(=O)[C@H](CCCCN)NC(=O)[C@@H](N)C(C)C)C(=O)N[C@@H](Cc1ccccc1)C(=O)N[C@@H](CC(N)=O)C(=O)N[C@@H](CCCN=C(N)N)C(=O)N[C@@H](Cc1ccccc1)C(N)=O [VKQLLKIFNRF] in this work.

An MIC (Streptococcus mutans) of no less than 44.6 µM was found for CC[C@H](C)[C@H](NC(=O)[C@H](Cc1cnc[nH]1)NC(=O)[C@H](CC(C)C)NC(=O)[C@H](CC(C)C)NC(=O)[C@@H](NC(=O)[C@H](CCCCN)NC(=O)[C@@H](N)C(C)C)[C@@H](C)O)C(=O)N[C@@H](Cc1ccccc1)C(=O)N[C@@H](CCC(N)=O)C(=O)N[C@@H](CCCN=C(N)N)C(=O)N[C@@H](Cc1ccccc1)C(N)=O [VKTLLHIFQRF] in this work.
